Reference: US8399214B2 (Evonik Degussa GmbH, priority 2005, dated 2013)
Values joined by “and” are separate entries in the source; they are usually repeats but may differ in a detail not shown here. Equal values may be shown once. Read-outs that look alike come from different tables or passages of the source.

How the values were obtained:
[1] = test system: C. glutamicum OM246C (ΔmetH, ΔmetE); format: cell-based; details: 24 hours at 30° C.
From the text: (§1) Other possible delivery systems include synthetic oils, organic solvents, chloro-carbons, fluoro-carbons, or chloro-fluoro-carbons.

[2] = test system: E. coli RY714B (metE::Tn10, ΔmetH); assay: Growth on methionine free agar with DMDS in a centre well; format: cell-based; details: 50 microliters DMDS in well, 30° C.
Method: (§2) The selection was for resistance to kanamycin sulfate at 25 mg/L on rich medium […] agar).

[3] = test system: E. coli CGSC 3592 (metF64); assay: as above; format: cell-based; details: 50 microliters DMDS in well, 30° C.
Method: as §2

C. glutamicum M2014 [4] = assay: Test tube growth in methionine-free medium with Amberlite XAD4 as DMDS delivery system
Method: (§3) To this end, test tube experiments using 5 ml of medium were performed on OM63 and M2014.
(§4) To each test tube 100 μl of a sterile suspension of XAD4 in water (50% v/v) was added.

OM101 (ΔmetB,ΔmetF) = assay: Lawn growth on methionine-free agar plates with liquid or gaseous DMDS; format: cell-based, C. glutamicum; details: for killing zone: 48-60 hours
Method: Control plates received the lawn of cells, but no DMDS. The plates were placed together in a sealed polypropylene plastic box that was slightly bigger than the stack of plates and incubated at 30° C. for 48-60 hours. […] Normally, when a required nutrient is placed in the middle of a lawn that is auxotrophic for the nutrient, a gradient of growth is seen, with the most rapid growth occurring closest to the nutrient.
The plates were incubated at 30° C. enclosed in an airtight plastic box. […] This could be accomplished by evaporating or boiling DMDS and pumping the DMDS vapor into the fermentation vessel, or by bubbling air or oxygen through liquid DMDS on its route to the fermentation vessel.

[5] = test system: C. glutamicum OM63 (ΔmetF); format: cell-based; details: 36 hours at 30° C.
From the text: (§5) M2014 was transformed with plasmid pOM86 (FIG. 9) (SEQ ID NO:8) to yield a “Campbell in” strain. The “Campbell in” strain was then “Cambelled out” to yield a “Campbell out” strain named OM63.

[6] = test system: C. glutamicum OM101 (ΔmetF, ΔmetB); details: DMDS 0.2%, XAD4, 60 hours at 30° C.
Method: (§8) A test tube experiment was performed with M2014 derivatives that contain different combinations of deletions of metY, metB, and metF. […] The inoculum was approximately 5×10^3 cells per tube. Cells were grown at 30° C. in a platform shaker for 60 hours, and cell densities were measured at OD600.

[7] = test system: C. glutamicum OM63 (ΔmetF)
Method: as §3, §4

C. glutamicum M2014 [8] = assay: Test tube growth in methionine-free medium with canola oil as DMDS delivery system; format: cell-based; details: MF + Canola Oil + 0.2% DMDS, 24 hours at 30° C.
From the text: as §1

C. glutamicum OM246C = assay: Shake flask study in molasses medium with XAD4, amino acid production with DMDS; format: cell-based; details: 80 μl DMDS (0.4% v/v), XAD4, 30° C.
Method: (§6) Samples were taken from the medium and assayed for amino acid content. […] (AGILENT). A pre-column derivatization of the sample with ortho-phthalaldehyde allowed the quantification of produced amino acids after separation on a Hypersil AA-column (AGILENT).
(§7) A shake flask experiment was performed where OM246C was compared to M2014. […] Thus, the production of methionine occurs from the conversion of O-acetyl-homoserine directly to methionine, bypassing homocysteine.

C. glutamicum M2014 [9] = assay: as above; format: cell-based; details: strain 2014, 80 μl DMDS (0.4% v/v), XAD4, 30° C.
Method: as §6, §7

[10] = test system: C. glutamicum OM158 (ΔmetF, ΔmetY); details: DMDS 0.2%, XAD4, 60 hours at 30° C.
Method: as §8

[11] = test system: C. glutamicum OM101C (ΔmetF, ΔmetB); format: cell-based; details: XAD4, 24 hours at 30° C.
Method: as §4

C. glutamicum M2014 [12] = assay: Test tube growth in methionine-free medium with mineral oil as DMDS delivery system; details: for Optical densities at 600 nm: 24 hours at 30° C.
From the text: as §1

[13] = test system: C. glutamicum OM246C (ΔmetH, ΔmetE); details: for Optical densities at 600 nm: OM246C, 24 hours at 30° C.
From the text: as §1

[14] = test system: C. glutamicum M2014 (parent); assay: Test tube growth in methionine-free medium, DMDS added directly; details: for Optical densities at 600 nm: M2014, 36 hours at 30° C.
From the text: as §5

With `CSSC` [DMDS, dimethyl disulfide] the “Optical densities at 600 nm” value ([1]; MF + Canola Oil + 0.2% DMDS) was 1.9 and 1.7, the “Optical densities at 600 nm” value ([1]; MF + Canola Oil + 0.4% DMDS) was 1.1 and 1.3 and the “Optical densities at 600 nm” value ([1]; MF + Canola Oil + 0.8% DMDS) was 0.0. The “growth on methionine free agar with DMDS” value ([2]; RY714B transformed with empty vector pCLIK) was “neither strain transformed with empty vector pCLIK grew”, the “growth on methionine free agar with DMDS” value ([2]; RY714B transformed with pH309 or pH357 (metY)) was “grew on the plates” and the “growth on methionine free agar with DMDS” value ([3]; CGSC 3592 transformed with empty vector pCLIK) was “neither strain transformed with empty vector pCLIK grew”. For the same compound, the “growth on methionine free agar with DMDS” value ([3]; CGSC 3592 transformed with pH309 or pH357 (metY)) was “grew on the plates”, the “Optical densities at 600 nm” value (C. glutamicum M2014 [4]; M2014, DMDS 0.1%, XAD4, 24 hours at 30° C.) was 4.4 and 4.3 and the “Optical densities at 600 nm” value (C. glutamicum M2014 [4]; M2014, DMDS 0.1%, XAD4, 42 hours at 30° C.) was 6.6. The “Optical densities at 600 nm” value (C. glutamicum M2014 [4]; M2014, DMDS 0.2%, XAD4, 24 hours at 30° C.) was 4.0 and 4.2, the “Optical densities at 600 nm” value (C. glutamicum M2014 [4]; M2014, DMDS 0.2%, XAD4, 42 hours at 30° C.) was 6.9 and the OD600 (C. glutamicum M2014 [4]; M2014, DMDS 0.2%, XAD4, 60 hours at 30° C.) was 4.5 and 3.6. For the same compound, the “Optical densities at 600 nm” value (C. glutamicum M2014 [4]; M2014, DMDS 0.3%, XAD4, 24 hours at 30° C.) was 3.8 and 3.5, the “Optical densities at 600 nm” value (C. glutamicum M2014 [4]; M2014, DMDS 0.3%, XAD4, 42 hours at 30° C.) was 7.3 and the “Optical densities at 600 nm” value (C. glutamicum M2014 [4]; M2014, DMDS 0.4%, XAD4, 24 hours at 30° C.) was 1.3 and 2.3. The “Optical densities at 600 nm” value (C. glutamicum M2014 [4]; M2014, DMDS 0.4%, XAD4, 42 hours at 30° C.) was 7.3, the “Optical densities at 600 nm” value (C. glutamicum M2014 [4]; M2014, DMDS 0.5%, XAD4, 42 hours at 30° C.) was 5.5 and the “maximum amount of DMDS that allowed cell growth” value (shortened to “maximum amount”) (C. glutamicum M2014 [4]; M2014, DMDS with Amberlite XAD4) was 0.4%. For the same compound, the “increase of the amount of DMDS that can be added before toxicity is observed” value (C. glutamicum M2014 [4]; in the presence of Amberlite XAD4 versus direct addition) was 5 fold, the “growth of OM101 lawn” value (OM101 (ΔmetB,ΔmetF); 50 μl liquid DMDS in polypropylene cap, reaches cells only through gaseous state, 30° C., two days) was “complete bacterial lawn” and the killing zone (OM101 (ΔmetB,ΔmetF); 50 μl liquid DMDS placed into a well in the agar, 30° C.) was “no killing zone”. For the same compound, the killing zone (OM101 (ΔmetB,ΔmetF); 50 μl liquid DMDS spotted directly on the lawn, 30° C.) was “approximately 30 mm”, the “toxicity of DMDS in the gas state to OM101” value (OM101 (ΔmetB,ΔmetF); gas state) was “not toxic” and the “Optical densities at 600 nm” value ([5]; MF + 0.02% DMDS) was 5.4. For the same compound, the “Optical densities at 600 nm” value ([5]; MF + 0.04% DMDS) was 5.9, the “Optical densities at 600 nm” value ([5]; MF + 0.06% DMDS) was 5.2 and the “Optical densities at 600 nm” value ([5]; MF + 0.08% DMDS) was 0.2. The “Optical densities at 600 nm” value ([5]; MF + 0.1% DMDS) was 0.0, the OD600 [6] was 2.4 and 1.8 and the “Optical densities at 600 nm” value ([7]; DMDS 0.1%, XAD4, 24 hours at 30° C.) was 3.0 and 3.3. For the same compound, the “Optical densities at 600 nm” value ([7]; DMDS 0.1%, XAD4, 42 hours at 30° C.) was 6.3, the “Optical densities at 600 nm” value ([7]; DMDS 0.2%, XAD4, 24 hours at 30° C.) was 1.7 and 3.4 and the “Optical densities at 600 nm” value ([7]; DMDS 0.2%, XAD4, 42 hours at 30° C.) was 6.5. The OD600 ([7]; DMDS 0.2%, XAD4, 60 hours at 30° C.) was 1.2 and 1.3, the “Optical densities at 600 nm” value ([7]; DMDS 0.3%, XAD4, 24 hours at 30° C.) was 3.9 and 2.1 and the “Optical densities at 600 nm” value ([7]; DMDS 0.3%, XAD4, 42 hours at 30° C.) was 4.9. For the same compound, the “Optical densities at 600 nm” value ([7]; DMDS 0.4%, XAD4, 24 hours at 30° C.) was 1.5 and 1.6, the “Optical densities at 600 nm” value ([7]; DMDS 0.4%, XAD4, 42 hours at 30° C.) was 3.6 and the “Optical densities at 600 nm” value ([7]; DMDS 0.5%, XAD4, 24 hours at 30° C.) was 0.1. For the same compound, the “Optical densities at 600 nm” value ([7]; DMDS 0.5%, XAD4, 42 hours at 30° C.) was 1.6, the “maximum amount” value ([7]; DMDS with Amberlite XAD4) was 0.4% and the “Optical densities at 600 nm” value (C. glutamicum M2014 [8]) was 1.5 and 1.4. For the same compound, the “Gly + Hse” value (C. glutamicum OM246C) was 1.7 g/L and 1.3 g/L, the Ile (C. glutamicum OM246C) was 0.0 g/L and the Lys (C. glutamicum OM246C) was 3.2 g/L and 3.4 g/L. The OD600 (C. glutamicum OM246C) was 32 and 35, the “O—Ac-hse” value (C. glutamicum OM246C) was 4.6 g/L and 4.3 g/L and the “Gly + Hse” value (C. glutamicum M2014 [9]) was 1.0 g/L and 1.4 g/L. The Ile (C. glutamicum M2014 [9]) was 0.0 g/L, the Lys (C. glutamicum M2014 [9]) was 2.5 g/L and the OD600 (C. glutamicum M2014 [9]) was 38 and 30. For the same compound, the “O—Ac-hse” value (C. glutamicum M2014 [9]) was 4.3 g/L and 3.6 g/L, the OD600 [10] was 0.0 and the “Optical densities at 600 nm” value ([11]; DMDS 0.1%) was 2.5 and 2.7. For the same compound, the “Optical densities at 600 nm” value ([11]; DMDS 0.2%) was 3.1 and 3.9, the “Optical densities at 600 nm” value ([11]; DMDS 0.3%) was 1.6 and 0.8 and the “Optical densities at 600 nm” value ([11]; DMDS 0.4%) was 0.05 and 0.03. The “Optical densities at 600 nm” value ([11]; DMDS 0.5%) was 0.02 and 0.01, the “maximum amount” value (C. glutamicum M2014 [12]; DMDS in mineral oil) was 0.8% and the “Optical densities at 600 nm” value (C. glutamicum M2014 [12]; MF + Mineral Oil + 0.2% DMDS) was 1.4 and 1.2. For the same compound, the “Optical densities at 600 nm” value (C. glutamicum M2014 [12]; MF + Mineral Oil + 0.4% DMDS) was 1.5 and 1.3, the “Optical densities at 600 nm” value (C. glutamicum M2014 [12]; MF + Mineral Oil + 0.8% DMDS) was 1.4 and 1.7 and the “Optical densities at 600 nm” value (C. glutamicum M2014 [12]; MF + Mineral Oil + 1.2% DMDS) was 0.0. The “maximum amount” value ([13]; DMDS in mineral oil, strain printed as OM63) was 0.4%, the “Optical densities at 600 nm” value ([13]; MF + Mineral Oil + 0.2% DMDS) was 1.1 and 1.6 and the “Optical densities at 600 nm” value ([13]; MF + Mineral Oil + 0.4% DMDS) was 1.2 and 1.5. For the same compound, the “Optical densities at 600 nm” value ([13]; MF + Mineral Oil + 0.8% DMDS) was 0.0, the “Optical densities at 600 nm” value ([13]; MF + Mineral Oil + 1.2% DMDS) was 0.0 and the “Optical densities at 600 nm” value ([14]; MF + 0.02% DMDS) was 5.5. The “Optical densities at 600 nm” value ([14]; MF + 0.04% DMDS) was 5.3, the “Optical densities at 600 nm” value ([14]; MF + 0.06% DMDS) was 6.6 and the “Optical densities at 600 nm” value ([14]; MF + 0.08% DMDS) was 0.0. The “Optical densities at 600 nm” value ([14]; MF + 0.1% DMDS) was 0.0, the “amount of DMDS tolerated by the cells” value ([14]; added directly to liquid cultures) was “less than 0.06%” and the “amount at which DMDS is toxic” value ([14]; added directly to liquid cultures of C. glutamicum) was “greater than 0.06%”.
